Measurements: article PMC7155171, “Probing the Open Global Health Chemical Diversity Library for Multistage-Active Starting Points for Next-Generation Antimalarials” (ACS Infectious Diseases, 2020)
Where two headings read alike, the source gives them in different places.

Legend:
[1] = test system: P. berghei liver stage (PbLuc); assay: P. berghei luciferase liver stage (PbLuc) assay in HepG2-A16-CD81 hepatocytes; type: cell-based, Plasmodium berghei; details: Plasmodium berghei
[2] = test system: P. vivax patient isolates, exoerythrocytic forms (schizonts and hypnozoites); assay: P. vivax liver stage assay in HC04 cells (immunofluorescence); details: HC04 cells treated 24 h before sporozoites, nanomolar concentrations, counted day 7
[3] = test system: HepG2-A16-CD81 hepatocytes; assay: HepG2 cytotoxicity screening (CellTiter-Glo); details: for IC50: HepG2-A16-CD81, read-out: HepG2 tox IC50
[4] = biological target: recombinant firefly luciferase (Photinus pyralis, UniProt P08659); assay: biochemical
P. falciparum Dd2 = assay: microbe, parasite or virus in culture; set-up: species or system P. falciparum Dd2 in human red blood cells; SYBR Green I asexual blood stage proliferation (DNA) assay, P. falciparum Dd2, 96 h; details: Plasmodium falciparum, DD2, Erythrocyte, 96 h, read-out: CDD P. falciparum Sybr Green I ABS Dd2 Dose Response: IC50 (uM)
[5] = test system: P. falciparum Dd2 (PfLuc) line expressing firefly luciferase, asexual blood stage; assay: microbe, parasite or virus in culture; set-up: species or system P. falciparum Dd2-luciferase in human red blood cells; PfLuc Dd2 asexual blood stage luciferase viability, BrightGlo luminescence, 48 h; details: Plasmodium falciparum, DD2, Erythrocyte, read-out: CDD P. falciparum Luciferase 11pt dose response (48hr, n=2): IC50 (μM), 11-point
Experimental: (§1) A transgenic line of Plasmodium falciparum (Dd2) constitutively expressing firefly luciferase was used for primary and reconfirmation screening. Cultures were maintained in complete media at 5% hematocrit (Human Whole Blood O+) and incubated at 37 °C in a low oxygen environment (3% O2, 5% CO2, and 92% N2). Culture health and parasitemia were tracked by Giemsa staining and bright field microscopy. Prior to dispensing parasites for primary screening, 20 nL of test compounds and 10 nL of control compounds (artemisinin and DMSO) were seeded per well using an Echo 550 acoustic dispenser (Labcyte) for final assay concentrations of 5 and 10 μM, respectively. When parasite cultures reached 3% to 8% parasitemia, as determined by a blood smear, infected blood was centrifuged at 800g for 5 min. […] From this blood mixture, 8 μL was dispensed per well in 1536-well, white, solid-bottom plates (789173-F, Greiner) using a MultiFlo FX Multi-Mode dispenser (BioTek). Plates were covered with a porous metal lid and incubated at 37 °C inside large plastic Ziploc bags filled with a blood gas mixture (3% O2, 5% CO2, and 92% N2) for 96 h. To prevent evaporation, a clean tray of water was included within each bag. Following incubation, BrightGlo was prepared by manufacturer specifications and dispensed at 2 μL per well using the MultiFlo dispenser. Plates were left for 20 min before being read with the ViewLux uHTS microplate imager (PerkinElmer) with a 90 s exposure time at the High Sensitivity Luminescence setting. Raw data were processed using GeneData (v12.0.5), whereby activity was normalized to negative minus positive controls. The correction of Runwise Pattern (Multiplicative) was applied, and compounds were considered hits when activity was reduced by ≥70%. […] Also, plates tested in 11-point dose response format were incubated at both 48 a From these (Sets 1 and 2), compounds were resupplied as fresh powders and evaluated in 11-point dose response tests (Pfluc; n = 2) for the two time points.

[6] = test system: HepG2-A16-CD81 hepatocytes; assay: cells; set-up: Uninfected hepatocyte viability, CellTiter-Glo luminescence; details: sheet CDD Export 1;, cytotoxicity primary screen, read-out: Table S5. Liver stage reconfirmation data / HepG2 Cytotoxicity primary screen (2uM): % Inhibition
Experimental: For the screen, 5 μL of HepG2-A16-CD81 hepatocytes containing 3 × 10^3 cells was seeded into 1536-well plates, which had been prespotted with 10 nL of library compound (2 μM final assay concentration (Figure 1)) and incubated overnight. For PbLuc infected plates, approximately 750 purified sporozoites in 5 μL of screening media were added to each well and incubated for 48 h before measuring luciferase activity. Compounds were tested for toxicity in parallel (see Methods) by measuring uninfected hepatocyte viability using CellTiter-Glo. […] This hit rate was slightly lower than expected for an agnostic library, which prompted us to rescreen the entire library at 10 μM. The PbLuc and cytotoxicity assay plates for this second replicate would be stamped in-house with 50 nL of library compound per well, using the same compound plates as the sexual stage screen described below. All the assay parameters were kept similar, except the change in concentration and shortening the time the compounds spent in each well prior to infection. […] All potential false positive effectors from the CellTiter-Glo assay were filtered from subsequent studies (Table S1). Naturally, there were more primary hits from the 10 μM than the 2 μM screen due to the higher testing concentration. For reconfirmation, we sourced all the hits that inhibited PbLuc at >70% and mean HepG2 at <50% in the 2 μM screen or PbLuc at >60% in both 2 and 10 μM screens and mean HepG2 at <50%. The resulting compounds were acquired as DMSO stocks and retested in the dose response (50–2.82 × 10^–4 μM or 25–141.13 × 10^–6 μM) against PbLuc and uninfected hepatocytes (Table S5). […] The majority of these compounds were weak inhibitors, although 18 submicromolar hits were found (Table S5).

[7] = test system: P. falciparum Dd2 (PfLuc) line expressing firefly luciferase, asexual blood stage; assay: microbe, parasite or virus in culture; set-up: species or system P. falciparum Dd2-luciferase in human red blood cells; PfLuc Dd2 asexual blood stage luciferase viability, BrightGlo luminescence, 96 h; details: Plasmodium falciparum, DD2, Erythrocyte, read-out: CDD P. falciparum Luc 11pt dose response (96hr, n=2): IC50 (μM), 11-point
Experimental: as §1, with “The primary assay was run at a compound concentration of 5 μM. Briefly, 8 μL of an ABS parasite mixture (∼10,000 parasites) was dispensed into 1536-well plates previously spotted with 64,811 GHCDL compounds (the remaining 3642 library compounds arrived later” for “From these (Sets 1”, “and” for “and 2), compounds”, “evaluated separately). After a 96 h incubation, 2 μL of luciferin (BrightGlo) was added,” for “resupplied as fresh powders”, “the luminescent signal was measured. Bioluminescence was normalized to DMSO (negative control) and artemisinin-treated (positive control) wells” for “evaluated in 11-point dose response tests (Pfluc; n = 2)”, “single point screens. For this primary screen, assay fidelity was determined on a per plate basis using both the Z′-factor and the potency variance of the positive (artemisinin) and negative (DMSO) controls. The mean Z′ value was 0.60 (range of 0.43–0.75), with only one plate falling below our ideal 0.5 threshold (Figure S1).” for “two time points.”

in vitro = details: human
[8] = test system: P. falciparum asexual blood stage (wild-type and DDD01061024-resistant Dd2-B2 clones); assay: Lactate dehydrogenase (LDH) asexual blood stage assay; type: cell-based, Plasmodium falciparum; details: for IC50: Plasmodium falciparum
Source text: Mutations within this site, and indeed at our V259L residue, were previously reported using other known cytochrome b inhibitors including ELQ400[49] and RYL-552.[50]
Figure S3. DDD01061024 is a cytochrome bc1 inhibitor.
The dual stage inhibitor, DDD01061024, is shown occupying the Q0 site (residues outlined in orange) of a Pf Cyt Bc1 homology model (from PDB: 1BE3) (a). A local V259L substitution (red) in mutant clones may destabilize the interactions within this pocket, helping resistant clones tolerate higher doses of the inhibitor (b). DDD01061024-resistannt mutants show cross-resistance to atovaquone (c), another multistage active antimalarial which targets the Q0 binding site. Dose dependent inhibition was determined using a metabolic endpoint (LDH) before normalizing to controls (n=2). Measuring the percentage of PbGFP infected hepatocytes using a high content imaging system validates the liver-stage potency of DDD01061024 in a fluorescence-based model (d). Infected hepatocytes were counted using luminescence-independent high content imaging in treated wells and normalized to controls over two replicates.
(1 picture or pasted object on this page, not shown here)

[9] = HepG2-A16-CD81, 48 h, 48 h liver stage, HepG2-A16-CD81, read-out: Pbluc (EEF) IC50

Chain of recombinant firefly luciferase (P08659 whole entry): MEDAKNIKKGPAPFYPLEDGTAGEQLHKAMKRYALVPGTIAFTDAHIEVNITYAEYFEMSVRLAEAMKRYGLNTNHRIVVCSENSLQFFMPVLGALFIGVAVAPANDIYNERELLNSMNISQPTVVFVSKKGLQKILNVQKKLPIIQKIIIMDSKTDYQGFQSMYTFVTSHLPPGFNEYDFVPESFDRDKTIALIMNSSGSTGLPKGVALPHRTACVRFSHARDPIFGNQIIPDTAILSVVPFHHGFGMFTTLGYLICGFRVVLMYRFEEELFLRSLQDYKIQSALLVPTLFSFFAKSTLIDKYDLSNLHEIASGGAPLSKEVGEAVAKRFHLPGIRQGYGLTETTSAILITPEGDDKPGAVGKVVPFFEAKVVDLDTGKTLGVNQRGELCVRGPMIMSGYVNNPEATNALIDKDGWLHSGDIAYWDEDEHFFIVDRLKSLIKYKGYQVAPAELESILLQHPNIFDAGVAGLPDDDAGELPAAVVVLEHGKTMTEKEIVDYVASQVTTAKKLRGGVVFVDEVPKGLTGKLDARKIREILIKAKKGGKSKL

Q: With `Cc1cc(NC(=O)C(C)C)n(-c2nc(C)c(C)c(=O)[nH]2)n1` [DDD01027481] as the molecule, how does the IC50 [1, 9] read?
A: 138 nM

Q: And the “P. vivax hypnozoites or schizonts after treatment” value [2]?
A: no detectable hypnozoites or schizonts

Q: What about the IC50 [3] of the same molecule?
A: > 25000 nM

Q: And the IC50 ([4]; read-out: rLuc IC50)?
A: > 50000 nM

Q: Which IC50 [1, 9] does the source give for `CCc1c(C)nc(-n2nc(C3CC3)cc2NC(C)=O)[nH]c1=O` [DDD01027733] here?
A: 96 nM

Q: And the “P. vivax hypnozoites or schizonts after treatment” value [2]?
A: no detectable hypnozoites or schizonts

Q: What about the IC50 [3] of the same molecule?
A: > 25000 nM

Q: What about the IC50 ([4]; read-out: rLuc IC50) of the same molecule?
A: > 50000 nM

Q: Which IC50 [1, 9] does the source give for `c1ccc(-c2ccc(C3CNCCO3)nc2)cc1` (stereo not drawn) [DDD01270216] here?
A: < 0.141 nM

Q: What about the IC50 (P. falciparum Dd2) of the same molecule?
A: > 12.5 µM

Q: And the IC50 [5]?
A: 1.77 µM

Q: And the IC50 [3]?
A: > 25000 nM

Q: And the inhibition at 2 µM [6]?
A: 6.27%

Q: And the IC50 ([4]; read-out: rLuc IC50)?
A: 220 nM

Q: And the IC50 [7]?
A: 1.44 µM

Q: Which results are given for `CCS(=O)(=O)N1[CH]Cc2ccc(NC(=O)Nc3cccc(C#N)c3)cc21` [UCSD-0785775]?
A: Emax ([1]; HepG2-A16-CD81, 48 h, 12pt dose response, maximum inhibition): 91.5%; inhibition at 2 µM ([1]; HepG2-A16-CD81, primary screen, 2 uM): -22.1%; inhibition at 10 µM ([1]; HepG2-A16-CD81, primary screen, 10 uM): 86.7%; IC50 ([1]; HepG2-A16-CD81, read-out: PbLuc 12pt dose response: IC50): 1360 nM; IC50 (in vitro): > 25000 nM; inhibition at 2 µM (in vitro): -2.63%; inhibition at 10 µM (in vitro): 39.2%; HepG2 cytotoxicity 12pt dose response: Maximum inhibition (%) ([3]; 12pt dose response, maximum inhibition): 52.4%; Emax ([4]; dose response, maximum inhibition, read-out: rLuc inhibition dose response: Maximum inhibition (%)): 6.44%; IC50 ([4]; dose response, read-out: rLuc inhibition dose response: IC50): > 25000 nM

Q: For `O=C1[C@@H]2CC[C@@H](CN(c3ncnc4ccsc34)C2)N1CC1CC1` [UCSD-0827296], which inhibition at 2 µM (in vitro) is on record?
A: -8.03%

Q: Which inhibition at 2 µM (in vitro) does the source give for `O=C1NCCN1C1CCCN(Cc2coc(-c3ccc(F)cc3)n2)C1` (stereo not drawn) [UCSD-0845351] here?
A: 0.09%

Q: With `O=C1C(O)=C([C@H]2CC[C@H](c3ccc(Cl)cc3)CC2)C(=O)c2ccccc21` [atovaquone] as the molecule, how does the “fold increase of IC50, DDD01061024 mutants vs wild-type” value [8] read?
A: 11 fold

Q: And the IC50 ([8]; DD2, read-out: IC50 against wild-type parasites)?
A: 0.377 nM

Q: What about the IC50 ([8]; DD2, read-out: IC50 in DDD01061024 mutants) of the same molecule?
A: 4.19 nM
